Values of other authors, collected in US20150182574A1, “COMPOSITIONS AND METHODS FOR ENHANCING MOBILIZATION AND PROLIFERATION OF BLASTOMERE-LIKE STEM CELLS” (Stemtech International, Inc., priority 2012, published 2015).

Columns and labels:
[1] = temperature and pH dependent
HSCs = conditions: intravenous injection
VSELs = conditions: in vivo

OC[C@H]1O[C@@H](Oc2c(O)cc(O)cc2C=Cc2ccc(O)cc2)[C@H](O)[C@@H](O)[C@@H]1O [2,3,5,4′-tetrahydroxystilbene-2-O-β-d-glycoside]
stability in aqueous solutions [1]: readily degrade in aqueous solutions

Fucoidan
egress of HSCs from bone marrow into the peripheral blood stream (HSCs): promote the egress of HSCs

B1: G-CSF: granulocyte colony-stimulating factor, mobilization agent (protein, UniProt P09919 31-207, looked up)
Granulocyte …: TPLGPASSLPQSFLLKCLEQVRKIQGDGAALQEKLVSECATYKLCHPEELVLLGHSLGIPWAPLSSCPSQALQLAGCLSQLHSGLFLYQGLLQALEGISPELGPTLDTLQLDVADFATTIWQQMEELGMAPALQPTQGAMPAFASAFQRRAGGVLVASHLQSFLEVSYRVLRHLAQP
numbers of VSELs in peripheral blood (VSELs): increase numbers of VSELs in peripheral blood
